Data from patent US20240408093A1, “HETEROBIFUNCTIONAL COMPOUNDS AND THEIR USE IN TREATING DISEASE” (HALDA THERAPEUTICS OPCO, INC., priority 2022, published 2024).
Where two headings read alike, the source gives them in different places.

Columns and labels:
Assay type in all cases: cell-based
[1] = system: GSPT1; experiment: Payload release assay (DC50 readout), GSPT1 degradation in the presence of recombinant target protein; conditions: I-series compounds (GSPT1 readout inferred)
Experimental: Exemplary compounds were tested for ability to cause degradation of CCNK or GSPT1 in the presence of recombinant target protein.
HEK293 LgBiT/GSPT1 HiBiT CRISPR Knock-in cells (Promega) were cultured in DMEM (Gibco 11995), supplemented with 10% Heat-inactivated FBS (Gibco A38400-01) and 1% Penicillin/Streptomycin (Gibco 15140-122) and 200 Vg/ml Hygromycin B (Gibco 10-687-010) at 37° C. with 5% CO2 in a humidified tissue culture incubator. HEK293 LgBiT/CCNK HiBiT cells (in-house, described above) were cultured in DMEM (Gibco 11995), supplemented with 10% Heat-inactivated FBS (Gibco A38400-01) and 1% Penicillin/Streptomycin (Gibco 15140-122) 200 Vg/ml Hygromycin B (Gibco 10-687-010), and 1 Vg/ml Puromycin Dihydrochloride (Thermo A1113803) at 37° C. with 5% CO2 in a humidified tissue culture incubator. Cells were seeded (1000 cells/well for HEK293 LgBiT/GSPT1 HiBiT cells or 3000 cells/well for HEK293 LgBiT/CCNK HiBiT cells) 384-well, tissue culture-treated white plates (Perkin Elmer 6007680) in 10 μL media lacking selection for 18-24 hours. Plates were spun at 300 g for 30 seconds and stored in the incubator overnight. After 24 hours, a 5 μL aliquot of recombinant target protein (final concentration of either 5 μM KRAS amino acids 1-169, C51S, C80L, C118S, G12C or 3 μM EGFR amino acids 696-1022 or 3 μM EGFR amino acids 696-1022, T790M, L858R) was added to wells, followed immediately by a 5 μL aliquot of 4× compound-containing medium supplemented with Endurazine Substrate (Promega N2570) was added in each well, at a final top concentration of 10 μM test compound and 0.5× Endurazine, with 4-fold dilutions, using DMSO alone as a negative control. Plates were then spun at 300×g for 3 minutes again and cultured at 37° C. with 5% CO2. After 6 hours the plate was read on Envision MultiMode Plate Reader 2105 (Perkin Elmer) to measure luminescence signal. Data was normalized to DMSO treated cell wells. A four-parameter non-linear regression curve fit was applied to dose-response data in Prism to determine the half maximal growth inhibitory concentration (GI50) of each compound.

[2] = system: HeLa cells (ATCC CCL-2); experiment: Cellular growth inhibition assay, HeLa cells (Example 16); conditions: Homo sapiens, 72 hours, CellTiter-Glo 2.0
[3] = target: T1, GSPT1 (Homo sapiens, UniProt P15170+Q96SW2); experiment: GSPT1 HiBiT degradation assay; conditions: HEK293 LgBiT GSPT1 HiBiT cells, 6 hours
T1 construct: host or cells: HEK293 LgBiT / GSPT1 HiBiT CRISPR knock-in
T1 sequence (P15170 whole entry): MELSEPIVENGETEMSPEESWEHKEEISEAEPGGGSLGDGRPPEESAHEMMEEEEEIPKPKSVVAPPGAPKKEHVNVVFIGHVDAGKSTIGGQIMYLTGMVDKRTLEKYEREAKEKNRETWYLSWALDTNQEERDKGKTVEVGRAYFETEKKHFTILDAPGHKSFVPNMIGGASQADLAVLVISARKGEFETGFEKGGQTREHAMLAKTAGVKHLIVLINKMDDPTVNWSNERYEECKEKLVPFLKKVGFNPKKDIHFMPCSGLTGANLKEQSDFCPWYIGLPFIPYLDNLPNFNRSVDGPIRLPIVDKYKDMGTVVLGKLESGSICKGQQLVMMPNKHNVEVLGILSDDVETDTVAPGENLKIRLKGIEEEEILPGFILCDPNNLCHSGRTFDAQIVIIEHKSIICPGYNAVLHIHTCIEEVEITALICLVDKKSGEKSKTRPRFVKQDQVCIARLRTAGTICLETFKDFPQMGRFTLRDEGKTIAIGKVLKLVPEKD
T1 sequence (Q96SW2 whole entry): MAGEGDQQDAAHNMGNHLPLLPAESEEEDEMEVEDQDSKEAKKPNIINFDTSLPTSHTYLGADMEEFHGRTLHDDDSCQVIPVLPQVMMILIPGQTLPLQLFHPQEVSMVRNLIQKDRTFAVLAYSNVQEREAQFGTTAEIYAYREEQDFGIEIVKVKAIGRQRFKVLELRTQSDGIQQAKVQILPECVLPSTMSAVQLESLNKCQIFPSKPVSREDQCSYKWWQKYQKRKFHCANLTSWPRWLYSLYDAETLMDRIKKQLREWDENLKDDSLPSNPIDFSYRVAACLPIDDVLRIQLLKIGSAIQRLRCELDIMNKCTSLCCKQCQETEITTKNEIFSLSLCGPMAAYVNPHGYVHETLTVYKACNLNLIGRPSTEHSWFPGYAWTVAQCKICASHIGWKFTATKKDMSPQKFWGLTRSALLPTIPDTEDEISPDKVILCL
T1 sequence (Q16531 whole entry partner): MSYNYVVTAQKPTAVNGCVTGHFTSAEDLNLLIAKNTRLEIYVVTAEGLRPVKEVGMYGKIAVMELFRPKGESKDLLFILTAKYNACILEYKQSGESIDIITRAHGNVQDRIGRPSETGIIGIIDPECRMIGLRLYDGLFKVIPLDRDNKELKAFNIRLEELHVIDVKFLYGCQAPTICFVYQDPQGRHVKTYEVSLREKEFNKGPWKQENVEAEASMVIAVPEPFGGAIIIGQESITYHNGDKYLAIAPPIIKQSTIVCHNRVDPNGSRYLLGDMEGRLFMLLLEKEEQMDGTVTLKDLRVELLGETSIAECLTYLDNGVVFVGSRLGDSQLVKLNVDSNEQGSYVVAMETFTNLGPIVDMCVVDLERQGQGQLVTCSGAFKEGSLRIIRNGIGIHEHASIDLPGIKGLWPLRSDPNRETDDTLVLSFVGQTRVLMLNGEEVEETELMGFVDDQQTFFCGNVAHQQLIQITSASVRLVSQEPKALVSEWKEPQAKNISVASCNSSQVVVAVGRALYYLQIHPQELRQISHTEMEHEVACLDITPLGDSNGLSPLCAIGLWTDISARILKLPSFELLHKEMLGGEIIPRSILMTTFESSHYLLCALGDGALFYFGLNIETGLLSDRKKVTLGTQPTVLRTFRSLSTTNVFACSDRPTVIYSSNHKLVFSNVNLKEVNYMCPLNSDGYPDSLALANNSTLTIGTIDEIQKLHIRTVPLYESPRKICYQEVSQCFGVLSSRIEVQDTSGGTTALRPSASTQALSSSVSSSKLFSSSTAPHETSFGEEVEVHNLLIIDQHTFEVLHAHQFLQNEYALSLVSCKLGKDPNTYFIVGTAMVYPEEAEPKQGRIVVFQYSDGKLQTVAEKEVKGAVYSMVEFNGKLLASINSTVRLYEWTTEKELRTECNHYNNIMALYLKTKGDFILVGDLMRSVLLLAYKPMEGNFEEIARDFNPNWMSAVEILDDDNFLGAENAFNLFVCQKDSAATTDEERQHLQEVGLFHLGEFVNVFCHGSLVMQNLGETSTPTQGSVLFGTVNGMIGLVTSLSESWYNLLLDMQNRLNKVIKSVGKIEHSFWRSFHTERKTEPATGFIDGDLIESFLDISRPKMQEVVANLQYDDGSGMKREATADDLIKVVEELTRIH
Outline: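 HEK293 CRISPR knock-in cells expressing LgBiT and GSPT1-HiBiT were seeded at 1000 cells/well and, after 18-24 h, treated with titrated compound plus endurazine (0.5× final) at 37 °C. Luminescence read after 6 h; loss of signal reflects GSPT1 degradation, giving DC50.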

[4] = system: HEK293 cells (ATCC CRL-1573); experiment: Cellular growth inhibition assay, HEK293 cells (Example 16); conditions: Homo sapiens, 72 hours, CellTiter-Glo 2.0
[5] = 0 μM recombinant KRAS G12C, read-out: DC50 at 0 μM KRAS G12C
[6] = 5 μM recombinant KRAS G12C, read-out: DC50 at 5 μM KRAS G12C
[7] = 0 μM recombinant EGFR T790M L858R, read-out: DC50 at 0 μM EGFR T790M L858R
[8] = 0 μM recombinant EGFR WT, read-out: DC50 at 0 μM EGFR WT
[9] = 3 μM recombinant EGFR T790M L858R, read-out: DC50 at 3 μM EGFR T790M L858R
[10] = 3 μM recombinant EGFR WT, read-out: DC50 at 3 μM EGFR WT

SMILES	DC50 [1, 5] [nM]	DC50 [1, 6] [nM]	GI50 [2] [nM]	DC50 [3] [nM]	GI50 [4] [nM]	DC50 [1, 7] [nM]	DC50 [1, 8] [nM]	DC50 [1, 9] [nM]	DC50 [1, 10] [nM]
C=C(COc1ccc(CN2C(=O)CCC(N3Cc4cc(CNC(=O)Nc5ccc(C)c(Cl)c5)ccc4C3=O)C2=O)cc1)C(=O)N1CCN(c2nc(OC[C@H]3CCCN3C)nc3c2CCN(c2cccc4cccc(Cl)c24)C3)C[C@@H]1CC#N (stereo in doubt) [Compound I-44]	> 10000	250 to 5000	> 10000	> 2500	> 10000	–	–	–	–
C=C(COc1cc(Cl)cc(NC(=O)NCc2ccc3c(c2)CN(C2CCC(=O)NC2=O)C3=O)c1)C(=O)N1CCN(c2nc(OC[C@@H]3CCCN3C)nc3c2CCN(c2cccc4cccc(Cl)c24)C3)C[C@@H]1CC#N (some centres unmarked) [Compound I-35]	250 to 5000	< 250	1500 to 10000	> 2500	1500 to 10000	–	–	–	–
C=C(CN(C(=O)NCc1ccc2c(c1)CN(C1CCC(=O)NC1=O)C2=O)c1ccc(C)c(Cl)c1)C(=O)Nc1cc(Nc2ncc(-c3cn(C)c4ccccc34)cn2)c(OC)cc1N(C)CCN(C)C (centres unmarked) [Compound I-42]	–	–	1500 to 10000	> 2500	1500 to 10000	250 to 5000	5000 to 10000	< 250	< 250
C=C(COc1cc(Cl)cc(NC(=O)NCc2ccc3c(c2)CN(C2CCC(=O)NC2=O)C3=O)c1)C(=O)N[C@@H]1CN(c2nc(Nc3cn(C)nc3OC)c3ncn(C)c3n2)C[C@H]1F (some centres unmarked) [Compound I-45]	–	–	1500 to 10000	500 to 2500	< 500	< 250	< 250	< 250	< 250
C=C(COc1cc(Cl)c(OC)cc1NC(=O)NCc1ccc2c(c1)CN(C1CCC(=O)NC1=O)C2=O)C(=O)N1CCN(c2nc(OC[C@@H]3CCCN3C)nc3c2CCN(c2cccc4cccc(Cl)c24)C3)C[C@@H]1CC#N (some centres unmarked) [Compound I-46]	250 to 5000	< 250	> 10000	500 to 2500	500 to 1500	–	–	–	–
C=C(COc1ccc(Cl)cc1NC(=O)NCc1ccc2c(c1)CN(C1CCC(=O)NC1=O)C2=O)C(=O)N[C@@H]1CN(c2nc(Nc3cn(C)nc3OC)c3ncn(C)c3n2)C[C@H]1F (some centres unmarked) [Compound I-47]	–	–	500 to 1500	50 to 500	< 500	< 250	< 250	< 250	< 250
C=C(COc1cc(NC(=O)NCc2ccc3c(c2)CN(C2CCC(=O)NC2=O)C3=O)cc(C(F)(F)F)c1)C(=O)N1CCN(c2nc(OC[C@@H]3CCCN3C)nc3c2CCN(c2cccc4cccc(Cl)c24)C3)C[C@@H]1CC#N (some centres unmarked) [Compound I-48]	250 to 5000	250 to 5000	> 10000	500 to 2500	1500 to 10000	–	–	–	–
C=C(COc1cccc(NC(=O)NCc2ccc3c(c2)CN(C2CCC(=O)NC2=O)C3=O)c1)C(=O)N1CCN(c2nc(OC[C@@H]3CCCN3C)nc3c2CCN(c2cccc4cccc(Cl)c24)C3)C[C@@H]1CC#N (some centres unmarked) [Compound I-49]	250 to 5000	> 10000	> 10000	500 to 2500	> 10000	–	–	–	–
C=C(COc1cc(NC(=O)NCc2ccc3c(c2)CN(C2CCC(=O)NC2=O)C3=O)cc(OC)c1)C(=O)N1CCN(c2nc(OC[C@@H]3CCCN3C)nc3c2CCN(c2cccc4cccc(Cl)c24)C3)C[C@@H]1CC#N (some centres unmarked) [Compound I-50]	250 to 5000	250 to 5000	> 10000	> 2500	> 10000	–	–	–	–
C=C(COC(=O)NCCc1ccc(Cl)cc1NC(=O)NCc1ccc2c(c1)CN(C1CCC(=O)NC1=O)C2=O)C(=O)N1CCN(c2nc(OC[C@@H]3CCCN3C)nc3c2CCN(c2cccc4cccc(Cl)c24)C3)C[C@@H]1CC#N (some centres unmarked) [Compound I-78]	> 10000	> 10000	–	500 to 2500	> 10000	–	–	–	–
C=C(COC(=O)NCCCc1ccc(Cl)cc1NC(=O)NCc1ccc2c(c1)CN(C1CCC(=O)NC1=O)C2=O)C(=O)N1CCN(c2nc(OC[C@@H]3CCCN3C)nc3c2CCN(c2cccc4cccc(Cl)c24)C3)C[C@@H]1CC#N (some centres unmarked) [Compound I-79]	250 to 5000	> 10000	–	500 to 2500	> 10000	–	–	–	–
C=C(COc1ccccc1NC(=O)NCc1ccc2c(c1)CN(C1CCC(=O)NC1=O)C2=O)C(=O)N1CCN(c2nc(OC[C@H]3CCCN3C)nc3c2CCN(c2cccc4cccc(Cl)c24)C3)C[C@H]1CC#N (some centres unmarked) [Compound I-80]	250 to 5000	< 250	–	> 2500	> 10000	–	–	–	–
C=C(COC(=O)n1c(CNc2nc(N3CCNCC3)nc3c(Br)cnn23)nc2cc(C)ccc21)C(=O)N1C[C@H](COc2nc(Nc3cnn(C)c3)nc3[nH]cc(Cl)c23)[C@@H](OC)C1 [Compound V-4]	–	–	500 to 1500	–	< 500	–	–	–	–
C=C(COc1cc(-c2ccccn2)ccc1CNc1nc(N[C@H](CC)CO)nc2c1ncn2C(C)C)C(=O)N[C@@H]1CN(c2nc(Nc3cn(C)nc3OC)c3ncn(C)c3n2)C[C@H]1F [II-183]	–	–	< 500	–	< 500	–	–	–	–
C=C(COC(=O)N1CCN(c2nc(NCc3nc4cc(C)ccc4[nH]3)n3ncc(Br)c3n2)CC1)C(=O)N1C[C@H](COc2nc(Nc3cnn(C)c3)nc3[nH]cc(Cl)c23)[C@@H](OC)C1 [II-185]	–	–	500 to 1500	–	< 500	–	–	–	–
C=C(COc1cc(-c2ccccn2)ccc1CNc1nc(N[C@H](CC)CO)nc2c1ncn2C(C)C)C(=O)N1CCN(c2nc(OC[C@@H]3CCCN3C)nc3c2CCN(c2cccc4cccc(Cl)c24)C3)C[C@@H]1CC#N [II-186]	–	–	1500 to 10000	–	500 to 1500	–	–	–	–
C=C(CN1CCN(c2nc(NCc3nc4cc(C)ccc4[nH]3)n3ncc(Br)c3n2)CC1)C(=O)Nc1cc(Nc2nccc(-c3cn(C)c4ccccc34)n2)c(OC)cc1N(C)CCN(C)C [II-188]	–	–	< 500	–	< 500	–	–	–	–
C=C(CN1CCN(c2nc(NCc3nc4cc(C)ccc4[nH]3)n3ncc(Br)c3n2)CC1)C(=O)N1CCN(c2nc(OC[C@@H]3CCCN3C)nc3c2CCN(c2cccc4cccc(Cl)c24)C3)C[C@@H]1CC#N [II-190]	–	–	< 500	–	< 500	–	–	–	–
C=C(CN1CCN(c2nc(NCc3nc4cc(C)ccc4[nH]3)n3ncc(Br)c3n2)CC1)C(=O)Nc1cccc(-c2cccc3cnc(Nc4ccc(N5CCN(CCO)CC5)c(F)c4F)nc23)c1 [II-191]	–	–	< 500	–	< 500	–	–	–	–
